Patent publication US20230059136A1, “THE COMPOUNDS AND COMPOSITIONS FOR TREATING CONDITIONS ASSOCIATED WITH NLRP ACTIVITY” (Novartis AG, priority 2018, published 2023)

Test system: IL-1β production in PMA-differentiated THP-1 cells
Assay: IL-1β production in PMA-differentiated THP-1 cells stimulated with gramicidin (hTHP-1 assay containing 2% fetal bovine serum)
Assay type: cell-based, human
Conditions: Homo sapiens, THP-1, Table B1; 2% fetal bovine serum; cells printed as numeric bound; read-out: hTHP-1 IC50 (Average IC50 of compounds in hTHP-1 assay)
How it was run: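 IL-1β release was read by HTRF on supernatants of 50,000 PMA-primed (20 ng/ml, 16-18 h) THP-1 cells/well in 2% FBS medium. Cells saw compound for 1 h (11-point titration from 100 μM, 0.37% DMSO) before a 2 h gramicidin (5 μM) challenge.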

Row | IC50 | SMILES
1 | > 30000 nM | CC(C)c1cc2c(c(C(C)C)c1CC(=O)N=S(N)(=O)c1cnc(C(C)(O)CO)s1)COC2 (single isomer, unassigned) [Example 339, (R, S) or (S, S)-N-(amino(2-(1,2-dihydroxypropan-2-yl)thiazol-5-yl)(oxo)-λ^6-sulfaneylidene)-2-(4,6-diisopropyl-1,3-dihydroisobenzofuran-5-yl)acetamide]
2 | > 30000 nM | CC(C)(O)c1ncc([S@](N)(=O)=NC(=O)Cc2cc3c(c4c2CCC4)CCC3)s1 [Compound 259b]
3 | > 30000 nM | CC(C)c1ncnc(C(C)C)c1CC(=O)N=S(N)(=O)c1cnc(C(C)(C)O)s1 (stereo not shown) [Compound 260]
4 | > 30000 nM | CC(C)c1cc2c(cnn2C)c(C(C)C)c1CC(=O)N=S(N)(=O)c1ncc(C(C)(C)O)s1 (stereo not shown) [Compound 1341]

Same assay, conditions: Homo sapiens, THP-1, Table B1; 2% fetal bovine serum; class symbols; read-out: hTHP-1 IC50 (Average IC50 of compounds in hTHP-1 assay)

Row | SMILES | IC50
5 | CC(C)c1cc2c(c(C(C)C)c1CC(=O)N=S(=O)(NC#N)c1cc(C(C)(C)O)cs1)COC2 (stereo in doubt) [Example 344, (R)-N-(cyanamido(4-(2-hydroxypropan-2-yl)thiophen-2-yl)(oxo)-λ^6-sulfaneylidene)-2-(4,6-diisopropyl-1,3-dihydroisobenzofuran-5-yl)acetamide] | 200 to 1000 nM
6 | CC(C)c1cc(F)cc(C(C)C)c1CC(=O)N=S(N)(=O)c1ccc(C(C)(C)O)cc1 (stereo not shown) [Example 1, 2-(4-Fluoro-2,6-diisopropylphenyl)-N-(4-(2-hydroxypropan-2-yl)phenylsulfonimidoyl)acetamide] | 1000 to 5000 nM
7 | CC(C)c1cc(F)cc(C(C)C)c1CC(=O)N=S(N)(=O)c1ncc(C(C)(C)O)s1 (stereo not shown) [Example 7, 2-(4-Fluoro-2,6-diisopropylphenyl)-N-(5-(2-hydroxypropan-2-yl)thiazole-2-sulfonimidoyl)acetamide] | 200 to 1000 nM

Further lines, results first:

Row | IC50 | SMILES
8 | 5000 to 30000 nM | CC(C)c1cc2c(c(C(C)C)c1CC(=O)N=S(=O)(NC#N)c1cc(C(C)(C)O)cs1)COC2 (stereo in doubt) [Example 343, (S)-N-(cyanamido(4-(2-hydroxypropan-2-yl)thiophen-2-yl)(oxo)-λ^6-sulfaneylidene)-2-(4,6-diisopropyl-1,3-dihydroisobenzofuran-5-yl)acetamide]
9 | 1000 to 5000 nM | CC(C)c1cc(F)cc(C(C)C)c1CC(=O)NS(=N)(=O)c1ncc(C(C)(C)O)s1 [Example 8, (S)- and (R)-2-(4-fluoro-2,6-diisopropylphenyl)-N-(5-(2-hydroxypropan-2-yl)thiazole-2-sulfonimidoyl)acetamide]

Same assay, conditions: Homo sapiens, THP-1, Table B2; 2% fetal bovine serum; cells printed as numeric bound; read-out: hTHP-1 IC50 (Average IC50 of compounds in hTHP-1 assay)

Row | IC50 | SMILES
10 | > 30000 nM | CC(C)c1nc(C(F)(F)F)nc(C(C)C)c1CC(=O)N=S(N)(=O)c1cnc(C(C)(C)O)s1 (single isomer, unassigned) [Example 397, (R) or (S)-N-(amino(2-(2-hydroxypropan-2-yl)thiazol-5-yl)(oxo)-λ^6-sulfaneylidene)-2-(4,6-diisopropyl-2-(trifluoromethyl)pyrimidin-5-yl)acetamide]
11 | > 30000 nM | CCn1cc(F)c(S(N)(=O)=NC(=O)Cc2c(C(C)C)cc3c(c2C(C)C)COC3)n1 (single isomer, unassigned) [Example 399, (S) or (R)-N-(amino(1-ethyl-4-fluoro-1H-pyrazol-3-yl)(oxo)-λ^6-sulfaneylidene)-2-(4,6-diisopropyl-1,3-dihydroisobenzofuran-5-yl)acetamide]

Same assay, conditions: Homo sapiens, THP-1, Table B2; 2% fetal bovine serum; class symbols; read-out: hTHP-1 IC50 (Average IC50 of compounds in hTHP-1 assay)

Row | SMILES | IC50
12 | COc1cc(-c2cccc(C(C)C)c2CC(=O)N=S(N)(=O)c2cnc(C(C)(O)CO)s2)ccn1 (single isomer, unassigned) [Example 351, N-(amino(2-((S or R)-1,2-dihydroxypropan-2-yl)thiazol-5-yl)(oxo)-λ^6-sulfaneylidene)-2-(2-isopropyl-6-(2-methoxypyridin-4-yl)phenyl)acetamide] | 200 to 1000 nM
13 | CC(C)c1cc(C#N)c(F)c(C(C)C)c1CC(=O)N=S(=O)(NC#N)c1cnc(C(C)(O)CO)s1 (single isomer, unassigned) [Example 359, N-(cyanamido(2-((R or S)-1,2-dihydroxypropan-2-yl)thiazol-5-yl)(oxo)-λ^6-sulfaneylidene)-2-(4-cyano-3-fluoro-2,6-diisopropylphenyl)acetamide] | 1000 to 5000 nM
14 | CC(C)c1nc(C(F)(F)F)nc(C(C)C)c1CC(=O)N=S(N)(=O)c1cnc(C(C)(C)O)s1 (single isomer, unassigned) [Example 396, (S) or (R)-N-(amino(2-(2-hydroxypropan-2-yl)thiazol-5-yl)(oxo)-λ^6-sulfaneylidene)-2-(4,6-diisopropyl-2-(trifluoromethyl)pyrimidin-5-yl)acetamide] | 1000 to 5000 nM
15 | CCn1cc(F)c(S(N)(=O)=NC(=O)Cc2c(C(C)C)cc3c(c2C(C)C)COC3)n1 (single isomer, unassigned) [Example 398, (R) or (S)-N-(amino(1-ethyl-4-fluoro-1H-pyrazol-3-yl)(oxo)-λ^6-sulfaneylidene)-2-(4,6-diisopropyl-1,3-dihydroisobenzofuran-5-yl)acetamide] | 200 to 1000 nM

Second part, the compound after the results:

Row | IC50 | SMILES
16 | 40 to 200 nM | CC(C)c1cc(C#N)cc(C(C)C)c1CC(=O)N=S(=O)(NC#N)c1sc(C(C)(C)O)nc1CO (single isomer, unassigned) [Example 358]
17 | 5000 to 30000 nM | CC(C)c1cc(C#N)c(F)c(C(C)C)c1CC(=O)N=[S@](=O)(NC#N)c1cnc([C@](C)(O)CO)s1 (single isomer, unassigned) [Example 371]
18 | 1000 to 5000 nM | COc1cc(-c2cccc(C(C)C)c2CC(=O)N=S(=O)(NC#N)c2cnc(C(C)(O)CO)s2)ccn1 (stereo in doubt) [Example 367, N-(cyanamido(2-((S)-1,2-dihydroxypropan-2-yl)thiazol-5-yl)(oxo)-λ^6-sulfaneylidene)-2-(2-isopropyl-6-(2-methoxypyridin-4-yl)phenyl)acetamide]

Same assay, conditions: Table B1; 2% fetal bovine serum; class symbols; read-out: hTHP-1 IC50 (Average IC50 of compounds in hTHP-1 assay)

Row | IC50 | SMILES
19 | 8 to 40 nM | CC(C)c1cc(F)cc(C(C)C)c1CC(=O)N=S(N)(=O)c1sc(C(C)(C)O)cc1F (stereo not shown) [Example 17, 2-(4-fluoro-2,6-diisopropylphenyl)-N-(3-fluoro-5-(2-hydroxypropan-2-yl)thiophen-2-ylsulfonimidoyl)acetamide]
20 | 8 to 40 nM | CC(C)c1c(F)c(C#N)cc(C2CC2)c1CC(=O)N=S(N)(=O)c1sc(C(C)(C)O)cc1F (stereo not shown) [Example 19, 2-(4-cyano-6-cyclopropyl-3-fluoro-2-isopropylphenyl)-N-(3-fluoro-5-(2-hydroxypropan-2-yl)thiophen-2-ylsulfonimidoyl)acetamide]

Same assay, conditions: Table B2; 2% fetal bovine serum; class symbols; read-out: hTHP-1 IC50 (Average IC50 of compounds in hTHP-1 assay)

Row | SMILES | IC50
21 | CC(C)c1cc(C#N)cc(C(C)C)c1CC(=O)N=S(N)(=O)c1sc(C(C)(C)O)nc1CCO (single isomer, unassigned) [Example 384, (S) or (R)-N-(amino(4-(2-hydroxyethyl)-2-(2-hydroxypropan-2-yl)thiazol-5-yl)(oxo)-λ^6-sulfaneylidene)-2-(4-cyano-2,6-diisopropylphenyl)acetamide] | 5000 to 30000 nM
22 | CCn1cc(F)c(S(N)(=O)=NC(=O)Cc2c(C(C)C)cc3c(c2C(C)C)OC(F)(F)O3)n1 (single isomer, unassigned) [Example 400, (R) or (S)-N-(amino(1-ethyl-4-fluoro-1H-pyrazol-3-yl)(oxo)-λ^6-sulfaneylidene)-2-(2,2-difluoro-4,6-diisopropylbenzo[d][1,3]dioxol-5-yl)acetamide] | 200 to 1000 nM
23 | CC(C)c1cc(C#N)c(F)c(C(C)C)c1CC(=O)N=S(N)(=O)c1cnc(C(O)(CO)CO)s1 (single isomer, unassigned) [Example 402, (R) or (S)-N-(amino(oxo) (2-(1,2,3-trihydroxypropan-2-yl)thiazol-5-yl)-λ^6-sulfaneylidene)-2-(4-cyano-3-fluoro-2,6-diisopropylphenyl)acetamide] | 200 to 1000 nM

Other lines, results leading:

Row | IC50 | SMILES
24 | 200 to 1000 nM | CC(C)c1cc(C#N)cc(C(C)C)c1CC(=O)N=S(N)(=O)c1sc(C(C)(C)O)nc1CCO (single isomer, unassigned) [Example 383, (R) or (S)-N-(amino(4-(2-hydroxyethyl)-2-(2-hydroxypropan-2-yl)thiazol-5-yl)(oxo)-λ^6-sulfaneylidene)-2-(4-cyano-2,6-diisopropylphenyl)acetamide]
25 | 200 to 1000 nM | CC(C)c1cc(C#N)cc(C(C)C)c1CC(=O)N=S(N)(=O)c1nc(CO)c(C(C)(C)O)s1 (single isomer, unassigned) [Example 385, (R) or (S)-N-(amino(4-(hydroxymethyl)-5-(2-hydroxypropan-2-yl)thiazol-2-yl)(oxo)-λ^6-sulfaneylidene)-2-(4-cyano-2,6-diisopropylphenyl)acetamide]
26 | 5000 to 30000 nM | CC(C)c1cc(C#N)cc(C(C)C)c1CC(=O)N=S(N)(=O)c1nc(CO)c(C(C)(C)O)s1 (single isomer, unassigned) [Example 386, (S) or (R)-N-(amino(4-(hydroxymethyl)-5-(2-hydroxypropan-2-yl)thiazol-2-yl)(oxo)-λ^6-sulfaneylidene)-2-(4-cyano-2,6-diisopropylphenyl)acetamide]
27 | 5000 to 30000 nM | CCn1cc(F)c(S(N)(=O)=NC(=O)Cc2c(C(C)C)cc3c(c2C(C)C)OC(F)(F)O3)n1 (single isomer, unassigned) [Example 401, (S) or (R)-N-(amino(1-ethyl-4-fluoro-1H-pyrazol-3-yl)(oxo)-λ^6-sulfaneylidene)-2-(2,2-difluoro-4,6-diisopropylbenzo[d][1,3]dioxol-5-yl)acetamide]
28 | 5000 to 30000 nM | CC(C)c1cc(C#N)c(F)c(C(C)C)c1CC(=O)N=S(N)(=O)c1cnc(C(O)(CO)CO)s1 (single isomer, unassigned) [Example 403, (S) or (R)-N-(amino(oxo) (2-(1,2,3-trihydroxypropan-2-yl)thiazol-5-yl)-λ^6-sulfaneylidene)-2-(4-cyano-3-fluoro-2,6-diisopropylphenyl)acetamide]
